Source: patent US9242958B2, “Substituted pyridazine carboxamide compounds as kinase inhibitor compounds” (Xcovery Holding Company LLC, priority 2010, dated 2016)
Marks after values point to notes of the source that are not given here. Values belong to the molecule of their own block, whether it stands above or below them.

Key:
c-Met = target: T1, c-Met (Homo sapiens, UniProt P08581); assay: Kinase binding assay (Met biochemical assay, affinity beads/qPCR)
T1 construct: T7 phage fusion (kinase-tagged T7 phage), or alternatively a DNA tag for qPCR; made in house; host or cells: E. coli BL21-derived host (T7 phage display) or HEK-293 cells
T1 sequence (P08581 25-1390): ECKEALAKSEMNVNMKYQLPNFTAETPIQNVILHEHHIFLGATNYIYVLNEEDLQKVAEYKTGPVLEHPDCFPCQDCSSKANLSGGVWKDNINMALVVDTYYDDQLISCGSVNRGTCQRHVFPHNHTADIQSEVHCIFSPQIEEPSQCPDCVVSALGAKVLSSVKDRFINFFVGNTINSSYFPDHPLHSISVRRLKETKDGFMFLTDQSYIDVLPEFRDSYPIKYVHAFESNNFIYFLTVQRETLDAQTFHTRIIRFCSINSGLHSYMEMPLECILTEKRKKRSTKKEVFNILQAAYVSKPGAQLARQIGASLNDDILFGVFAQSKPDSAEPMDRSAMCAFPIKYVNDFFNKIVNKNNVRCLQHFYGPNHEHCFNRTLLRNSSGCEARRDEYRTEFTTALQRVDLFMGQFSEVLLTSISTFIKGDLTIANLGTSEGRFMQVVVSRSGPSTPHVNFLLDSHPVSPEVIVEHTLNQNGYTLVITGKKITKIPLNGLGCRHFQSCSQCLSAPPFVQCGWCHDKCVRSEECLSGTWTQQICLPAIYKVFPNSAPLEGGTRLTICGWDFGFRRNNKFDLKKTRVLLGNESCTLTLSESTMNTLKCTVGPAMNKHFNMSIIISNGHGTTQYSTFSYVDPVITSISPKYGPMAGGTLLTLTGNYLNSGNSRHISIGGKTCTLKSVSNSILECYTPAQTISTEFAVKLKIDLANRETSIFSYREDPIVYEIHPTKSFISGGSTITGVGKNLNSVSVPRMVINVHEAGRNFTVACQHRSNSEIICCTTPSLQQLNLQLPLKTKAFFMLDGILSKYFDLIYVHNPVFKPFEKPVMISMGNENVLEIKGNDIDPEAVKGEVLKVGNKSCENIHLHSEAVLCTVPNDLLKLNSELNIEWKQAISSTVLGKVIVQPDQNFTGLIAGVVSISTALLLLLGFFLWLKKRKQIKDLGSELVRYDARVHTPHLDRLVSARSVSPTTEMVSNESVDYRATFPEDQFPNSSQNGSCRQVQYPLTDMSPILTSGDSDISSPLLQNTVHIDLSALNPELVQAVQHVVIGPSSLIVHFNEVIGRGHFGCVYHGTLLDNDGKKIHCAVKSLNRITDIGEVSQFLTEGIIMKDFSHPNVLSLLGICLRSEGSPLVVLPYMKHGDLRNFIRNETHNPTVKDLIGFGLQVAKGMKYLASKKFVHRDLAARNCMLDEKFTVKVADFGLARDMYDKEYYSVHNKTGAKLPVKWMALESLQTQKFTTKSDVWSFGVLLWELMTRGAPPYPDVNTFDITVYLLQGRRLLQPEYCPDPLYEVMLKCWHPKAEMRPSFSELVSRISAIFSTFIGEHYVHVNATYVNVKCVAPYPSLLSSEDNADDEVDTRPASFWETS
Method: (§1) Met, ALK Biochemical Assays
(§2) Kinase Assays. […] 23, p. […] 26, p.
(§3) For most assays, kinase-tagged T7 phage strains were grown in parallel in 24-well blocks in an E. coli host derived from the BL21 strain. E. coli were grown to log-phase and infected with T7 phage from a frozen stock (multiplicity of infection ˜0.1) and incubated with shaking at 32° C. until lysis (˜90 minutes). The lysates were centrifuged (6,000×g) and filtered ([…]) to remove cell debris. The remaining kinases were produced in HEK-293 cells and subsequently tagged with DNA for qPCR detection. […] The liganded beads were blocked with excess biotin and washed with blocking buffer (SeaBlock (Pierce), 1% BSA, 0.05% Tween 20, 1 mM DTT) to remove unbound ligand and to reduce non-specific phage binding. […] Test compounds were prepared as 40× stocks in 100% DMSO and directly diluted into the assay. All reactions were performed in polypropylene 384-well plates in a final volume of 0.04 ml. […] The kinase concentration in the eluates was measured by qPCR.

ALK = target: T2, ALK (Homo sapiens, UniProt Q9UM73); assay: Kinase binding assay (ALK biochemical assay, affinity beads/qPCR)
T2 construct: T7 phage fusion (kinase-tagged T7 phage), or alternatively a DNA tag for qPCR; made in house; host or cells: E. coli BL21-derived host (T7 phage display) or HEK-293 cells
T2 sequence (Q9UM73 19-1620): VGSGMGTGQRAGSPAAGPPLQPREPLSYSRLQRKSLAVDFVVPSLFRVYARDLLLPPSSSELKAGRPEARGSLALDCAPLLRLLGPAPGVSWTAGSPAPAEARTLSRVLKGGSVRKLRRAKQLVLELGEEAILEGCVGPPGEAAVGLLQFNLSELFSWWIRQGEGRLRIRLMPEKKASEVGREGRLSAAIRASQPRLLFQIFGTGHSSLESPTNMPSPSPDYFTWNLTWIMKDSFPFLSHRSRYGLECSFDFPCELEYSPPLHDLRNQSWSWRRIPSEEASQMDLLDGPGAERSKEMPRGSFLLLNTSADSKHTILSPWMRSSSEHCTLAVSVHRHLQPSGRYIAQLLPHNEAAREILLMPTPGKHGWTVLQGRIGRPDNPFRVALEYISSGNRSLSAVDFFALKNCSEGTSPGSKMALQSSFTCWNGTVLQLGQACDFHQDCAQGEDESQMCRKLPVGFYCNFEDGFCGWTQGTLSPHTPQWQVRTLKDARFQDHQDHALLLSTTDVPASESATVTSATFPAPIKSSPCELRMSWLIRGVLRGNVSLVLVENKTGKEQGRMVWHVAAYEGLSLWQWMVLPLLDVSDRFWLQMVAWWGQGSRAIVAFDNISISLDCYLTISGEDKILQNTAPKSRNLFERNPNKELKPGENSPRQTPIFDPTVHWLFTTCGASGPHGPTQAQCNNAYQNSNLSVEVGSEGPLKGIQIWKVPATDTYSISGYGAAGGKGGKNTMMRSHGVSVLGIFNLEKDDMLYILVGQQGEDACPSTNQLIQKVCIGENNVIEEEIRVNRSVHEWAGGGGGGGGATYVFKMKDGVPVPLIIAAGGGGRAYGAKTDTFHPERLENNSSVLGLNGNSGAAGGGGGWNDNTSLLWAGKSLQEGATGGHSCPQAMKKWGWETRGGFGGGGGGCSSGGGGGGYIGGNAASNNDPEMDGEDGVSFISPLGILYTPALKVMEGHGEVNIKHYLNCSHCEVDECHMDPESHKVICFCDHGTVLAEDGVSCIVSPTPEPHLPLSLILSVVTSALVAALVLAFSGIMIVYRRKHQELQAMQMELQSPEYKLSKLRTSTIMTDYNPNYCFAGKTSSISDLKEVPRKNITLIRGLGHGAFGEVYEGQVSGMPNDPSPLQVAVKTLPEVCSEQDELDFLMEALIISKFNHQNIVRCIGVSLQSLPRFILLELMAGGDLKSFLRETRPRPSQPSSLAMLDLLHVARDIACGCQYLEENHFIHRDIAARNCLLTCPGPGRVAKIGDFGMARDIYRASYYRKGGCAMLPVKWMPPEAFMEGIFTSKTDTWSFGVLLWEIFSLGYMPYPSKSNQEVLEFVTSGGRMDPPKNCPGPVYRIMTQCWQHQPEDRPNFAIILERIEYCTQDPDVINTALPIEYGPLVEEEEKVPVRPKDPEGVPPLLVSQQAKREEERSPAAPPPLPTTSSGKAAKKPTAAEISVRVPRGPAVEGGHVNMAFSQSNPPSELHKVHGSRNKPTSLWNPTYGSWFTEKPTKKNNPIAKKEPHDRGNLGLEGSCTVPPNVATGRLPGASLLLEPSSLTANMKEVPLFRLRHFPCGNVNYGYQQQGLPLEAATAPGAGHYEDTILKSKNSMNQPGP
Method: as §1, §2, §3

U-87 MG xenograft tumor = assay: In vivo anti-tumor efficacy against U-87MG tumor xenograft model; parameters: species or system Balb/c nude mice
Method: In Vivo Anti-Tumor Efficacy of Compound 1 of EXAMPLE 1 Against U-87MG Tumor Xenograft Model
Balb/c nude mice (6 weeks old, male) were purchased from Shanghai Slac Laboratory Animal Co. Ltd (Shanghai, China). All mice were maintained in a pathogen-free facility for ˜2 weeks before implantation. They were housed in plastic cages (4˜6 mice/cage) containing corn cob and maintained in a pathogen-free facility (20˜25° C., 30˜70% humidity) with a 12-h light:dark cycle.
U-87 MG xenograft model was established by implanting athymic Balb/c nude mice s.c in the right flank with U-87 MG cells, 3.6×10^6/mouse (120 ul). Tumors were allowed to reach 120˜380 mm^3 in size.
Tumor volumes were measured twice a week with caliper. Tumor volumes were calculated by the formula <Tumor volume=length×width^2/2>.
Percentage of tumor growth inhibition (GI) after initiation of treatment was calculated by the formula: GI=100×{1−[(tumor volumefinal−tumor volumeinitial for the compound-treated group)/(tumor volumefinal−tumor volumeinitial for the vehicle-treated group)]} Relative tumor volume is defined as the ratio of the volume at a given time and the volume at the start of treatment. The relative tumor volume (RTV) was calculated by the formula: RTV=100×TVT/TV0

[1] = 25 mg/kg ig BID, d28 post implantation
[2] = 25 mg/kg ig BID, d31 post implantation
[3] = 50 mg/kg ig BID, d28 post implantation
[4] = 50 mg/kg ig BID, d31 post implantation

SMILES: COCCn1cc(NC(=O)c2cc(OC(C)c3c(Cl)ccc(F)c3Cl)c(N)nn2)ccc1=O (racemic) [Example 6, {6-amino-5-[(2,6-dichloro-3-fluorophenyl)ethoxy]pyridazin-3-yl}-N-[1-(2-methoxyethyl)-6-oxo-1,6-dihydro-pyridin-3-yl]carboxamide]
IC50 (c-Met): < 5 nM | IC50 (ALK): > 10 nM

SMILES: C[C@@H](Oc1cc(C(=O)Nc2ccc(=O)n(C)c2)nnc1N)c1c(Cl)ccc(F)c1Cl [Example 1, {5-[(1R)-1-(2,6-dichloro-3-fluorophenyl)ethoxy]-6-aminopyridazin-3-yl}-N-(1-methyl-6-oxo-1,6-dihydro-pyridin-3-yl)carboxamide]
IC50 (c-Met): < 5 nM | tumor volume (mean ± S.E) (U-87 MG xenograft tumor; 25 mg/kg ig BID, d24 post implantation (start of treatment)): 230.4 ± 23.0 mm^3 | tumor growth inhibition GI (U-87 MG xenograft tumor; [1]): 62.14% | tumor volume (mean ± S.E) (U-87 MG xenograft tumor; [1]): 365.7 ± 29.3** mm^3 | tumor growth inhibition GI (U-87 MG xenograft tumor; [2]): 77.04% | tumor volume (mean ± S.E) (U-87 MG xenograft tumor; [2]): 453.7 ± 19.7** mm^3 | tumor volume (mean ± S.E) (U-87 MG xenograft tumor; 25 mg/kg ig BID, d35 post implantation): 627.7 ± 33.9** mm^3 | tumor growth inhibition GI (U-87 MG xenograft tumor; 25 mg/kg ig BID, d35 post implantation (after 11 days of treatment)): 65.95% | tumor volume (mean ± S.E) (U-87 MG xenograft tumor; 50 mg/kg ig BID, d24 post implantation (start of treatment)): 230.2 ± 24.5 mm^3 | tumor growth inhibition GI (U-87 MG xenograft tumor; [3]): 78.82% | tumor volume (mean ± S.E) (U-87 MG xenograft tumor; [3]): 305.9 ± 22.0** mm^3 | tumor growth inhibition GI (U-87 MG xenograft tumor; [4]): 85.52% | tumor volume (mean ± S.E) (U-87 MG xenograft tumor; [4]): 337.4 ± 27.8** mm^3 | tumor volume (mean ± S.E) (U-87 MG xenograft tumor; 50 mg/kg ig BID, d35 post implantation): 371.5 ± 34.4** mm^3 | tumor growth inhibition GI (U-87 MG xenograft tumor; 50 mg/kg ig BID, d35 post implantation (after 11 days of treatment)): 88.71% | IC50 (ALK): > 10 nM

SMILES: CC(Oc1cc(C(=O)NC2CCC(=O)N(C)C2)nnc1N)c1c(Cl)ccc(F)c1Cl (centres unmarked) [Example 4]
IC50 (c-Met): > 100 nM | IC50 (ALK): > 100 nM

Further lines, results first:

IC50 (c-Met): < 5 nM | IC50 (ALK): > 10 nM
SMILES: CC(Oc1cc(C(=O)Nc2ccc(=O)[nH]c2)nnc1N)c1c(Cl)ccc(F)c1Cl (racemic) [Example 5, {6-amino-5-[(2,6-dichloro-3-fluorophenyl)ethoxy]pyridazin-3-yl}-N-(6-oxo-1,6-dihydro-pyridin-3-yl)carboxamide]

IC50 (c-Met): < 5 nM | IC50 (ALK): > 10 nM
SMILES: CCn1cc(NC(=O)c2cc(OC(C)c3c(Cl)ccc(F)c3Cl)c(N)nn2)ccc1=O (racemic) [Example 7, {6-amino-5-[(2,6-dichloro-3-fluorophenyl)ethoxy]pyridazin-3-yl}-N-(1-ethyl-6-oxo-1,6-dihydro-pyridin-3-yl)carboxamide]

IC50 (c-Met): < 5 nM | IC50 (ALK): < 5 nM
SMILES: C[C@@H](Oc1cc(C(=O)Nc2ccc(C(=O)N3CCN(C)CC3)cc2)nnc1N)c1c(Cl)ccc(F)c1Cl [reference compound]
